Data reported in patent EP0181109B1, “N6-benzopyrano- and benzothiopyrano-adenosines” (WARNER-LAMBERT COMPANY, priority 1984, dated 1986).

Legend:
spontaneous locomotion = assay: Mouse Activity and Screen Test Procedure (MAST): locomotor activity in actophotometer; format: in vivo, Swiss-Webster male mice; conditions: one hour prior to testing
Protocol: (§1) Nine unfasted Swiss-Webster male mice weighing 20-30 g are equally divided into three groups for each drug dose to be tested. There is, data for each dose level was generated by three separate groups of three mice each.
(§2) A minimum of three dose levels (10, 30, and 100 mg/kg) are tested for each drug. Treatments are administered intraperitoneally one hour prior to testing. All dosages are calculated as parent compound and given in volumes of 10 ml/kg. Compounds are dissolved or suspended in 0.2% Methocel. Control animals are injected with Methocel.
The actophotometer consists of a cylindrical chamber whose center is occupied by another cylinder which contains the illumination for six photocells located on the perimeter of the chamber. Six light-beam interruptions equal one count. Locomotor activity is recorded by computer at ten minute intervals for 60 minutes.
Data: The data obtained from the screen test are expressed as percent of mice falling off the screen. Data derived from locomotor activity of drug treated mice are compared to the activity of vehicle treated animals and are expressed as percent inhibition of spontaneous locomotion. All percentages reported for inhibition of locomotion (LI) are based upon data accumulated for one hour. […] An overall dose rating is obtained by the following criteria:
LAD refers to the lowest dose at which an A rating is achieved. […] The compounds are identified in the Examples.

adenosine A1 receptor = target: T1, adenosine A1 receptor (Rattus norvegicus, UniProt P25099); assay: Adenosine Receptor Binding - A1 Receptor Affinity (RBA 1), [3H]-CHA displacement; conditions: rat whole brain membranes, 1.0 nM [3H]-CHA, one hour at 25°C
T1 construct: Whole brain minus cerebellum and brainstem from male Long Evans rats (150-200 g) was homogenized; from tissue; host or cells: rat whole brain minus cerebellum and brainstem (membrane homogenate)
T1 sequence (P25099 1-326): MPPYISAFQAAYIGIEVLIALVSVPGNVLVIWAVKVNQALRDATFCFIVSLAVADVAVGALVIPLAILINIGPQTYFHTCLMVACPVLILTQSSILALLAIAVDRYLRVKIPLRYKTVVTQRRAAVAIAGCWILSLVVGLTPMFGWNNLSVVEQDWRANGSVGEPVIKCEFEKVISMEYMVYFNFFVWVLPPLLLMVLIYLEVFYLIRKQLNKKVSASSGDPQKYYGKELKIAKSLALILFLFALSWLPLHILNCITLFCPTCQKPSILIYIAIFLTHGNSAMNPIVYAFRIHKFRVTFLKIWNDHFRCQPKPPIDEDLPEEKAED
Protocol: Whole brain minus cerebellum and brainstem from male Long Evans rats (150-200 g) was homogenized in 30 volumes of ice-cold 0.05 M Tris-HCI buffer pH 7.7 using a Brinkman Polytron PT-10, (setting number 6 for 20 seconds) and centrifuged for ten minutes at 20,000 x g (Sorvall RC-2), 4°C. The supernatant was discarded, and the pellet was resuspended and centrifuged as before. The pellet was resuspended in 20 ml Tris-HCI buffer containing two International Units/ml of adenosine deaminase (Sigma Type III from calf intestinal mucosa), incubated at 37°C for 30 minutes, then subsequently at 0°C for ten minutes. The homogenate was again centrifuged, and the final pellet was resuspended in ice-cold 0.05 M Tris-HCI buffer pH 7.7 to a concentration of 20 mg/ml original wet tissue weight and used immediately.
Tissue homogenate (10 mg/ml) was incubated in 0.05 M Tris-HCI buffer pH 7.7 containing 1.0 nM [^3H]-N^6-cyclohexyladenosine (^3H]-CHA) with or without test agents in triplicate for one hour at 25°C. Incubation volume was 2 ml. Unbound [^3H]-CHA was separated by rapid filtration under reduced pressure through Whatman glass fiber (GF/B) filters. The filters were rinsed three times with 5 ml of ice cold 0.05 M Tris-HCI buffer pH 7.7. The radio-labele ligand retained on the filter was measured by liquid scintillation spectrophotometry after shaking the filters for one hour or longer on a mechanical shaker in 10 ml of Beckman Ready-Solv HP scintillation cocktail.
Nonspecific binding was defined as the binding which occurred in the presence of 1 mM theophylline. The concentration of test agent which inhibited 50% of the specific binding (IC50) was determined by nonlinear computer curve fit. The Scatchard plot was calculated by linear regression of the line obtained by plotting the amount of radioligand bound (pmoles/gram of tissue) versus
• bound radioligand • free radioligand Since the amount of radioligand bound was a small fraction of the total amount added, free radioligand was defined as the concentration (nM) of radioligand added to the incubation mixture. The Hill coefficient was calculated by linear regression of the line obtained by plotting the log of the bound radioligand vs the log of the • bound radioligand • Bmax - bound radioligand • The maximal number of binding sites (Bmax) was calculated from the Scatchard plot.

[1] = system: mice falling off the inverted screen; assay: Mouse Activity and Screen Test Procedure (MAST): screen test (ST); format: in vivo, Swiss-Webster male mice; conditions: one hour postinjection, percent of mice falling off the screen
Description: The compounds of the invention are new chemical substances which are useful as pharmaceutical agents for the treatment of psychoses. The antipsychotic activity of representative compounds of the invention was established by the Mouse Activity and Screen Test Procedure (MAST) described below.
as §1, §2
Testing: A two part testing procedure is started one hour postinjection. First, the screen test (ST) is performed (see Pharmac. Biochem. Behav. 6,351-353,1977). Briefly this test consists of placing mice on individual wire screens which are then rotated 180 degrees at the start of a 60 second observation period. The number of mice falling off the inverted screen is recorded.
Data: The data obtained from the screen test are expressed as percent of mice falling off the screen. Data derived from locomotor activity of drug treated mice are compared to the activity of vehicle treated animals and are expressed as percent inhibition of spontaneous locomotion. All percentages reported for inhibition of locomotion (LI) are based upon data accumulated for one hour. Both phases of testing are graded: A=60-100%; C=31-59%; and N=0-30%. An overall dose rating is obtained by the following criteria:
LAD refers to the lowest dose at which an A rating is achieved. […] Utilizing this procedure, an overall dose rating of A was obtained for the noted compound at the indicated dose. The compounds are identified in the Examples.

Structure (SMILES) | Inhibition of Mouse Locomotion Activity (spontaneous locomotion; 1 mg/kg intraperitoneally) [%] | Inhibition of Mouse Locomotion Activity (spontaneous locomotion; 3 mg/kg intraperitoneally) [%] | Inhibition of Mouse Locomotion Activity (spontaneous locomotion; 10 mg/kg intraperitoneally) [%] | Inhibition of Mouse Locomotion Activity (spontaneous locomotion; 30 mg/kg intraperitoneally) [%] | Inhibition of Mouse Locomotion Activity (spontaneous locomotion; 100 mg/kg intraperitoneally) [%] | IC50 (adenosine A1 receptor) [nM] | Screen Test Failure ([1]; 1 mg/kg intraperitoneally) [%] | Screen Test Failure ([1]; 3 mg/kg intraperitoneally) [%] | Screen Test Failure ([1]; 10 mg/kg intraperitoneally) [%] | Screen Test Failure ([1]; 30 mg/kg intraperitoneally) [%] | Screen Test Failure ([1]; 100 mg/kg intraperitoneally) [%]
C[C@H]1Oc2ccccc2C[C@@H]1Nc1ncnc2c1ncn2[C@@H]1O[C@H](CO)[C@@H](O)[C@H]1O (relative stereo) [Example 8, N^l-[trans-2-Methyl,-3-chromanylamino]adenosine] | 52 | 84 | 95 | 98 | 99 | 45 | 0 | 11 | 0 | 11 | 33
OC[C@H]1O[C@@H](n2cnc3c(NC4CCOc5ccccc54)ncnc32)[C@H](O)[C@@H]1O (stereo partly shown) [Example 1] | – | 91 | 94 | 97 | – | 88 | – | 33 | 33 | 22 | –
OC[C@H]1O[C@@H](n2cnc3c(NC4CSc5ccccc5C4)ncnc32)[C@H](O)[C@@H]1O (stereo partly shown) [Example 2] | 34 | 60 | 96 | 98 | 99 | 6.33 | 11 | 0 | 11 | 56 | 100
COc1ccc2c(c1)OCC(Nc1ncnc3c1ncn3[C@@H]1O[C@H](CO)[C@@H](O)[C@H]1O)C2 (stereo partly shown) [Example 3] | 25 | 58 | 89 | 97 | – | 14.2 | 0 | 0 | 22 | 22 | –
OC[C@H]1O[C@@H](n2cnc3c(NC4COc5ccccc5C4)ncnc32)[C@H](O)[C@@H]1O (stereo partly shown) [Example 4, N^6-[3-Chromanylamino]adenosine] | 36 | 87 | 94 | 99 | 98 | 20 | 22 | 11 | 11 | 100 | 88
